# Patent US6437002B1, “Agent for preventing and treating skin diseases” (Showa Denko K.K., priority 1998, dated 2002)
# Key:
# [1] = tested on: dorsum skin of hairless mouse; assay: Test (A): skin permeability and ascorbic acid activity, H-type transverse diffusion cell; type: in vitro ADME; set-up: key: When an ascorbic acid transmitted through the skin was identified, the evaluation was “+”; when an ascorbic acid was not detected, the evaluation was “−”; When a peak on the order of a trace was confirmed, the evaluation was “+”; conditions: abraded hairless mouse skin, 37° C., 30 to 120 minutes
# Method: The dorsum skin with corium of a 4- or 5-week-old hairless mouse was abraded and the skin abraded from the back of the hairless mouse was fixed in an H-type transverse diffusion cell. Then, 2 ml of DALBECCO PBS(−) was charged into the receiver-side cell and 2 ml of a specimen was charged into the donor-side cell. After incubation at 37° C. for from 30 to 120 minutes, 200 μl was sampled from the […] and 200 μl of DALBECCO PBS(−) was replenished. An ascorbic acid amount of the solution sampled was analyzed by the HPLC method described later in the Examples. When an ascorbic acid transmitted through the skin was detected and identified, the evaluation was “+” and when an ascorbic acid was not detected and identified, the evaluation was “−”. When a peak on the order of a trace was confirmed, the evaluation was “±”.
# The dorsum skin with corium of a 4- or 5-week-old hairless mouse was abraded and the skin abraded from the back of the hairless mouse was fixed in an H-type transverse diffusion cell. Then, 2 ml of DALBECCO PBS(−) was charged into the receiver-side cell and 2 ml of a specimen was charged into the donor-side cell (in the case of an oil-soluble material, it was emulsion-dispersed in an ordinary manner by adding 2% of a surfactant Tween 80 (trademark)). After incubation at 37° C. for from 30 to 120 minutes, 200 μl was sampled from the […] and 200 μl of DALBECCO PBS (−) was replenished. An ascorbic acid amount of the solution sampled was analyzed by the HPLC method in the Examples. When an ascorbic acid transmitted through the skin was identified, the evaluation was “+” and when an ascorbic acid was not detected, the evaluation was “−” When a peak on the order of a trace was confirmed, the evaluation was […].
# [2] = Test (B): durability (activity duration) on storage; type: physicochemical; conditions: 0.5% in water (oil-soluble: emulsion with 2% Tween 80), stored at 40° C. for one month
# Method: An ascorbic acid derivative was dissolved in water to have a concentration of 0.5% (in the case of an oil-soluble SF-621 US material, it was emulsion-dispersed in an ordinary manner by adding 2% of a surfactant Tween 80 (trademark)) and stored at 40° C. for one month. Then the residual amount of the derivative was measured by the HPLC method described later in the Examples. When the residual ratio was 90% or more, the evaluation was “+” and when it was less than 90%, the evaluation was “−”.
# An ascorbic acid derivative was dissolved in water to have a concentration of 0.5% (in the case of an oil-soluble material, it was emulsion-dispersed in an ordinary manner by adding 2% of a surfactant Tween 80 (trademark)) and stored at 40° C. for one month. Then the residual amount of the derivative was measured by the HPLC method. When the residual ratio was 90% or more, the evaluation was “+” and when it was less than 90%, the evaluation was “−”.
Molecule,"Test (A): skin permeability and ascorbic acid activity (ascorbic acid transmitted through the skin, by HPLC) [1]",Test (B): durability (residual ratio of the derivative by HPLC) [2]
2-Palmitoyloxy-L-ascorbic acid-2-phosphate,+,
"Cc1c(C)c2c(c(C)c1OP(=O)(O)OC1=C(O)[C@@H]([C@@H](O)CO)OC1=O)CC[C@@](C)(CCC[C@H](C)CCC[C@H](C)CCCC(C)C)O2 [Ascorbic acid tocopherolphosphate diester, reference compound]",−,"+ (When the residual ratio was 90% or more, the evaluation was “+”)"
O=C1O[C@H]([C@@H](O)CO)C(O)=C1O[C@H]1O[C@H](CO)[C@@H](O)[C@H](O)[C@H]1O [L-Ascorbic acid-2-glucoside],+,"+ (When the residual ratio was 90% or more, the evaluation was “+”)"
O=C1O[C@H]([C@@H](O)CO)C(O)=C1OP(=O)([O-])[O-].[Mg+2] [Magnesium L-ascorbic acid-2-phosphate],,"+ (When the residual ratio was 90% or more, the evaluation was “+”)"
O=C1O[C@H]([C@@H](O)CO)C(O)=C1OP(=O)([O-])[O-].[K+].[K+] [Potassium L-ascorbic acid-2-phosphate],+,"+ (When the residual ratio was 90% or more, the evaluation was “+”)"
O=C1O[C@H]([C@@H](O)CO)C(O)=C1OP(=O)([O-])[O-].[Na+].[Na+] [Sodium L-ascorbic acid-2-phosphate],+,"+ (When the residual ratio was 90% or more, the evaluation was “+”)"
"O=C1O[C@H]([C@@H](O)CO)C(O)=C1OS(=O)(=O)[O-].[Na+] [Sodium L-ascorbic acid-2-sulfate, reference compound]",−,"+ (When the residual ratio was 90% or more, the evaluation was “+”)"
